Measured values published in US10766884B2 (Pfizer Inc., priority 2018, dated 2020).
pIC50, pKi: −log10 of the molar value.

Legend:
CDK4 = CDK4 (Homo sapiens (Human), UniProt P11802); experiment: Phospho-Serine 795 Rb ELISA assay in JEKO-1 cells; assay type: cell-based; conditions: overnight treatment, phospho-Rb S795, read-out: CDK4 pRB S795 ELISA JEKO-1 cells IC50
Method: (§1) JEKO-1 or MV4-11 cells were seeded at 15,000 or 20,000 cells per well, respectively, in 100 μL growth media and allowed to incubate at 37° C. with 5% CO2 overnight. The following day, compounds were serially diluted from a 10 mM top dose for an 11-point 3-fold dilution curve in DMSO. Compounds were intermediately diluted 1:200 into growth media prior to diluting 1:5 on cells for final concentration 10 μM to 0.1 nM in 0.1% DMSO on cells. JEKO-1 and MV4-11 cells were treated were treated overnight, at 37° C. with 5% CO2. Cells were lysed in 100 μL/well CST lysis buffer on ice and transferred to pre-coated and blocked anti-phospho-Ser795 Rb ELISA plates for overnight incubation at 4° C. Plates were washed to remove residual, unbound cellular proteins and total Rb detection antibody added for 90 minutes at 37° C. Following wash to remove unbound total Rb antibody, the HRP tagged antibody was allowed to bind for 30 minutes at 37° C. Following wash to remove unbound HRP antibody, Glo Substrate Reagent was added and incubated protected from light for 5 to 10 minutes. Plates were read in luminescence mode and IC50 values calculated.

CDK6/Cyclin D3 = CDK6/Cyclin D3 (Homo sapiens (Human), UniProt Q00534); experiment: CDK6/Cyclin D3 mobility shift assay; assay type: biochemical; conditions: activated CDK6/Cyclin D3, 3.5 mM ATP, Morrison fit; read-out: CDK6_D3 Ki
Sequence of CDK6/Cyclin D3 (Q00534 whole entry): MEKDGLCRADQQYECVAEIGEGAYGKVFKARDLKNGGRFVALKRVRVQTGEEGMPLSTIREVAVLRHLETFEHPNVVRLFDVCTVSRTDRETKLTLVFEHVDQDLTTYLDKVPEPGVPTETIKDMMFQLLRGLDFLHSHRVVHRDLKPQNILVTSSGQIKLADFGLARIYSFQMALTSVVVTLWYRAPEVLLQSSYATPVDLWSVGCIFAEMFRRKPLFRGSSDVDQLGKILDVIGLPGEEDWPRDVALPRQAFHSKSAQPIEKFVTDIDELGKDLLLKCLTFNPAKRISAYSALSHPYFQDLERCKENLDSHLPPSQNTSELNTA
Sequence of CDK6/Cyclin D3 (P30281 whole entry partner): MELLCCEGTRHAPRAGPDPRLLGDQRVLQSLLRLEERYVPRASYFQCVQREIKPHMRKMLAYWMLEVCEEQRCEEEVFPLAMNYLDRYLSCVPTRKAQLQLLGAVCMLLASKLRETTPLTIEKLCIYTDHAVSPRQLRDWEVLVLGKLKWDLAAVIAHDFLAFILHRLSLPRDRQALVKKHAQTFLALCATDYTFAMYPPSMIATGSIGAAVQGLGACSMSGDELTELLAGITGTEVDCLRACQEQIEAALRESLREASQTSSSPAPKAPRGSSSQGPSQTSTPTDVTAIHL
Method: (§2) The purpose of the CDK6/Cyclin D3 assay is to evaluate the inhibition (% inhibition, Kiapp and Ki values) in the presence of small molecule inhibitors by using a fluorescence based microfluidic mobility shift assay. […] The mobility shift assay electrophoretically separates the fluorescently labeled peptides (substrate and phosphorylated product) following the kinase reaction. Both substrate and product are measured and the ratio of these values is used to generate % conversion of substrate to product by the LabChip EZ Reader.
The reaction was stopped after 95 minutes by the addition of 50 μL of 30 mM EDTA. Ki determinations were made from a plot of the fractional velocity as a function of inhibitor concentration fit to the Morrison equation with the enzyme concentration as a variable.
(§3) For CDK4 and CDK6 mobility shift assays, see also Morrison, J. F. (1969) Kinetics of the reversible inhibition of enzyme-catalysed reactions by tight-binding inhibitors, Biochimica et biophysica acta 185, 269-286; and Murphy, D. J. (2004) Determination of accurate KI values for tight-binding enzyme inhibitors: an in silico study of experimental error and assay design, Analytical biochemistry 327, 61-67.

CDK4/Cyclin D1 = CDK4/Cyclin D1 (Homo sapiens (Human), UniProt P11802); experiment: CDK4/Cyclin D1 mobility shift assay; assay type: biochemical; conditions: activated CDK4/Cyclin D1, 3.5 mM ATP, Morrison fit; read-out: CDK4D1 Ki
Sequence of CDK4/Cyclin D1 (P11802 whole entry): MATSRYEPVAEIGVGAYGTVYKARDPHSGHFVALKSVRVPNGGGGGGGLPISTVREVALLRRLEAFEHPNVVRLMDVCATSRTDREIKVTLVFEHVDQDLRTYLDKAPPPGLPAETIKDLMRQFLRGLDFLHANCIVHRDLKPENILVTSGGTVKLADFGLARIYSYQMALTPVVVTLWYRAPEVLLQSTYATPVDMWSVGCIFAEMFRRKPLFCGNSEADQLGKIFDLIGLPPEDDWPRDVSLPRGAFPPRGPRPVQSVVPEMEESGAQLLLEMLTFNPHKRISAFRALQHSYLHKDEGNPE
Sequence of CDK4/Cyclin D1 (P24385 whole entry partner): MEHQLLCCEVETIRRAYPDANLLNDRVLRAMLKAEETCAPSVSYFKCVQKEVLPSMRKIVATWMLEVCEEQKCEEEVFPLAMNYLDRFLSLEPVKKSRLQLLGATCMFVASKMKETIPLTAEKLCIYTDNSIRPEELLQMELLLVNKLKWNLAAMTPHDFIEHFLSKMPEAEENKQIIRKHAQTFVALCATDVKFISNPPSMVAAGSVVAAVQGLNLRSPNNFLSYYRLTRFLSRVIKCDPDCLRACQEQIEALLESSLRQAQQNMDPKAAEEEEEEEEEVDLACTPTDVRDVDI
Method: as §2, with “CDK4/Cyclin D1” for “of the CDK6/Cyclin D3”, “Conversion” for “conversion”
The reaction was stopped after 195 minutes by the addition of 50 μL of 30 mM EDTA. Ki determinations were made from a plot of the fractional velocity as a function of inhibitor concentration fit to the Morrison equation with the enzyme concentration as a variable.
as §3

CDK6 = CDK6 (Homo sapiens (Human), UniProt Q00534); experiment: Phospho-Serine 795 Rb ELISA assay in MV4-11 cells; assay type: cell-based; conditions: overnight treatment, phospho-Rb S795, read-out: CDK6 pRB S795 ELISA MV4-11 cells IC50
Sequence of CDK6 (Q00534 whole entry): as the sequence (Q00534 whole entry) above
Sequence of CDK6 (P30281 whole entry partner): as the sequence (P30281 whole entry partner) above
Method: as §1

Sequence of CDK4 (P11802 2-303): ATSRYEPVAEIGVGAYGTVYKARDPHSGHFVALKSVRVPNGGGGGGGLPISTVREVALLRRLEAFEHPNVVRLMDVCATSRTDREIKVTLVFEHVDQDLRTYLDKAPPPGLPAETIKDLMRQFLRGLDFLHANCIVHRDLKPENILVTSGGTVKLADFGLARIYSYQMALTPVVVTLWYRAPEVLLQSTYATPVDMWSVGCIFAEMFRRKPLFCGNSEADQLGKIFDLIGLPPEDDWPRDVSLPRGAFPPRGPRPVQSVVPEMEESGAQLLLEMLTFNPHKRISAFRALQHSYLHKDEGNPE
Sequence of CDK4 (P24385 whole entry partner): as the sequence (P24385 whole entry partner) above

Question: What does the source list for `CC(C)n1c(C(C)(O)C2CC2)nc2c(F)cc(-c3nc(N[C@@H]4CCOC[C@H]4O)ncc3Cl)cc21` (single isomer, unassigned) [Example A23]?
Answer: pIC50 (CDK4): 7.58; pKi (CDK6/Cyclin D3): 7.94; pKi (CDK4/Cyclin D1): 9.30; pIC50 (CDK6): 7.08

Question: What does the source list for `CC(C)n1c([C@@H](C)O)nc2c(F)cc(-c3nc(N[C@@H]4CCN(S(C)(=O)=O)C[C@@H]4O)ncc3Cl)cc21` (single isomer, unassigned) [Example F11]?
Answer: pIC50 (CDK4): 6.09; pKi (CDK4/Cyclin D1): 8.27

Question: With `Cc1nc2ccc(-c3nc(N[C@@H]4CCN(S(C)(=O)=O)C[C@H]4O)ncc3F)cc2n1C(C)C` [Example A76, (3R,4R)-4-({5-fluoro-4-[2-methyl-1-(propan-2-yl)-1H-benzimidazol-6-yl]pyrimidin-2-yl}amino)-1-(methanesulfonyl)piperidin-3-ol] as the compound, how does the pKi (CDK6/Cyclin D3) read?
Answer: The pKi was 8.20.

Question: And the pIC50 (CDK6)?
Answer: The pIC50 was 6.62.

Question: What does the source list for `CC(C)n1nnc2ccc(-c3nc(N[C@@H]4CCN(S(C)(=O)=O)C[C@H]4O)ncc3Cl)cc21` [Example A84, (3R,4R)-4-({5-chloro-4-[1-(propan-2-yl)-1H-benzotriazol-6-yl]pyrimidin-2-yl}amino)-1-(methanesulfonyl)piperidin-3-ol]?
Answer: pKi (CDK6/Cyclin D3): 7.52; pKi (CDK4/Cyclin D1): 8.22

Question: `Cc1nc2ncc(-c3nc(N[C@@H]4CCN(S(C)(=O)=O)C[C@H]4O)ncc3Cl)cc2n1C(C)C` [Example A85, (3R,4R)-4-({5-chloro-4-[2-methyl-1-(propan-2-yl)-1H-imidazo[4,5-b]pyridin-6-yl]pyrimidin-2-yl}amino)-1-(methanesulfonyl)piperidin-3-ol] was tested. Which pKi (CDK6/Cyclin D3) did it give?
Answer: The pKi was 7.20.

Question: What about the pKi (CDK4/Cyclin D1) of the same compound?
Answer: The pKi was 8.00.

Question: With `Cc1nc2ccc(-c3nc(N[C@@H]4CCN(S(C)(=O)=O)C[C@H]4O)ncc3Cl)nc2n1C(C)C` [Example A86, (3R,4R)-4-({5-chloro-4-[2-methyl-3-(propan-2-yl)-3H-imidazo[4,5-b]pyridin-5-yl]pyrimidin-2-yl}amino)-1-(methanesulfonyl)piperidin-3-ol] as the compound, how does the pKi (CDK6/Cyclin D3) read?
Answer: Its pKi is 7.63.

Question: And the pKi (CDK4/Cyclin D1)?
Answer: The pKi was 8.33.

Question: Which results are given for `CS(=O)(=O)N1CC[C@@H](Nc2ncc(Cl)c(-c3cc(F)c4nc(CO)n(CC(F)(F)F)c4c3)n2)[C@H](O)C1` [Example A90, (3R,4R)-4-({5-chloro-4-[4-fluoro-2-(hydroxymethyl)-1-(2,2,2-trifluoroethyl)-1H-benzimidazol-6-yl]pyrimidin-2-yl}amino)-1-(methanesulfonyl)piperidin-3-ol]?
Answer: pKi (CDK6/Cyclin D3): 8.96; pKi (CDK4/Cyclin D1): 9.70

Question: `CC(C)n1c([C@@H](C)O)nc2c(F)cc(-c3nc(N[C@@H]4CCN(S(C)(=O)=O)C[C@H]4O)ncc3Cl)cc21` [Example A93, (3R,4R)-4-[(5-chloro-4-{4-fluoro-2-[(1R)-1-hydroxyethyl]-1-(propan-2-yl)-1H-benzimidazol-6-yl}pyrimidin-2-yl)amino]-1-(methanesulfonyl)piperidin-3-ol] was tested. Which pIC50 (CDK4) did it give?
Answer: Its pIC50 is 7.46.

Question: What about the pKi (CDK4/Cyclin D1) of the same compound?
Answer: Its pKi is 9.70.

Question: With `CC(C)n1cnc2c(F)cc(-c3nc(N[C@@H]4CCN(S(C)(=O)=O)C[C@H]4O)ncc3C(F)(F)F)cc21` [Example B02, (3R,4R)-4-({4-[4-fluoro-1-(propan-2-yl)-1H-benzimidazol-6-yl]-5-(trifluoromethyl)pyrimidin-2-yl}amino)-1-(methanesulfonyl)piperidin-3-ol] as the compound, how does the pKi (CDK6/Cyclin D3) read?
Answer: The pKi was 7.57.

Question: And the pKi (CDK4/Cyclin D1)?
Answer: The pKi was 8.14.

Question: Which results are given for `CC(C)n1c([C@H](C)O)nc2c(F)cc(-c3cc(N[C@@H]4CCN(S(C)(=O)=O)C[C@H]4O)ncc3Cl)cc21` [Example D01, (3R,4R)-4-[(5-chloro-4-{4-fluoro-2-[(1S)-1-hydroxyethyl]-1-(propan-2-yl)-1H-benzimidazol-6-yl}pyridin-2-yl)amino]-1-(methanesulfonyl)piperidin-3-ol]?
Answer: pKi (CDK6/Cyclin D3): 8.77; pKi (CDK4/Cyclin D1): 9.40

Question: How did the pKi (CDK6/Cyclin D3) turn out when `CC(C)n1c([C@H](C)O)nc2c(F)cc(-c3cc(N[C@@H]4CCOC[C@H]4O)ncc3Cl)cc21` [Example D02, 1,5-anhydro-3-[(5-chloro-4-{4-fluoro-2-[(1S)-1-hydroxyethyl]-1-(propan-2-yl)-1H-benzimidazol-6-yl}pyridin-2-yl)amino]-2,3-dideoxy-D-threo-pentitol] was run?
Answer: The pKi was 8.03.

Question: And the pKi (CDK4/Cyclin D1)?
Answer: The pKi was 9.00.

Question: What does the source list for `CC(C)n1c([C@@H](C)O)nc2c(F)cc(-c3cc(N[C@@H]4CCN(S(C)(=O)=O)C[C@H]4O)ncc3Cl)cc21` [Example D03, (3R,4R)-4-[(5-chloro-4-{4-fluoro-2-[(1R)-1-hydroxyethyl]-1-(propan-2-yl)-1H-benzimidazol-6-yl}pyridin-2-yl)amino]-1-(methanesulfonyl)piperidin-3-ol]?
Answer: pKi (CDK6/Cyclin D3): 8.33; pKi (CDK4/Cyclin D1): 9.22

Question: What does the source list for `CC(O)c1nc2c(F)cc(-c3nc(N[C@@H]4CCN(S(=O)(=O)C(F)F)C[C@H]4O)ncc3Cl)cc2n1C(C)C` (stereo partly drawn) [Example F10, (3R,4R)-4-({5-chloro-4-[4-flluoro-2-(1-hydroxyethyl)-1-(propan-2-yl)-1H-benzimidazol-6-yl]pyrimidin-2-yl}amino)-1-(difluoromethanesulfonyl)piperidin-3-ol]?
Answer: pIC50 (CDK4): 7.38; pKi (CDK4/Cyclin D1): 9.30

Question: What does the source list for `Cc1nc2c(F)cc(-c3nc(N[C@H]4CCN(S(C)(=O)=O)C[C@@H]4O)ncc3F)cc2n1C(C)C` [Example F14, (3S,4S)-4-({5-fluoro-4-[4-fluoro-2-methyl-1-(propan-2-yl)-1H-benzimidazol-6-yl]pyrimidin-2-yl}amino)-1-(methanesulfonyl)piperidin-3-ol]?
Answer: pKi (CDK6/Cyclin D3): 7.51; pKi (CDK4/Cyclin D1): 8.44

Question: Which results are given for `CC(C)(C)n1cnc2c(F)cc(-c3nc(N[C@@H]4CCN(S(C)(=O)=O)C[C@H]4O)ncc3F)cc21` [Example F15, (3R,4R)-4-{[4-(1-tert-butyl-4-fluoro-1H-benzimidazol-6-yl)-5-fluoropyrimidin-2-yl]amino}-1-(methanesulfonyl)piperidin-3-ol]?
Answer: pIC50 (CDK4): 7.46; pKi (CDK6/Cyclin D3): 9.00; pIC50 (CDK6): 7.40

Question: With `CC(C)n1cnc2c(F)cc(-c3nc(N[C@@H]4CCN(C(=O)C5COC5)C[C@H]4O)ncc3Cl)cc21` [Example F18, [(3R,4R)-4-({5-chloro-4-[4-fluoro-1-(propan-2-yl)-1H-benzimidazol-6-yl]pyrimidin-2-yl}amino)-3-hydroxypiperidin-1-yl](oxetan-3-yl)methanone] as the compound, how does the pIC50 (CDK4) read?
Answer: The pIC50 was 7.50.

Question: And the pKi (CDK6/Cyclin D3)?
Answer: The pKi was 8.00.

Question: What about the pKi (CDK4/Cyclin D1) of the same compound?
Answer: Its pKi is 9.05.

Question: With `CC(C)n1cnc2c(F)cc(-c3nc(N[C@@H]4CCN(C(=O)C5(C)COC5)C[C@H]4O)ncc3Cl)cc21` [Example F19, [(3R,4R)-4-({5-chloro-4-[4-fluoro-1-(propan-2-yl)-1H-benzimidazol-6-yl]pyrimidin-2-yl}amino)-3-hydroxypiperidin-1-yl](3-methyloxetan-3-yl)methanone] as the compound, how does the pKi (CDK6/Cyclin D3) read?
Answer: Its pKi is 7.93.

Question: What about the pKi (CDK4/Cyclin D1) of the same compound?
Answer: The pKi was 8.82.

Question: With `CNCC(=O)N1CC[C@@H](Nc2ncc(Cl)c(-c3cc(F)c4ncn(C(C)C)c4c3)n2)[C@H](O)C1` [Example F24, 1-[(3R,4R)-4-({5-chloro-4-[4-fluoro-1-(propan-2-yl)-1H-benzimidazol-6-yl]pyrimidin-2-yl}amino)-3-hydroxypiperidin-1-yl]-2-(methylamino)ethan-1-one] as the compound, how does the pKi (CDK6/Cyclin D3) read?
Answer: The pKi was 7.70.

Question: And the pKi (CDK4/Cyclin D1)?
Answer: Its pKi is 8.68.

Question: With `CC(C)n1cnc2c(F)cc(-c3nc(N[C@@H]4CCN(C(=O)C[C@H](N)C(F)(F)F)C[C@H]4O)ncc3Cl)cc21` [Example F31, (3S)-3-amino-1-[(3R,4R)-4-({5-chloro-4-[4-fluoro-1-(propan-2-yl)-1H-benzimidazol-6-yl]pyrimidin-2-yl}amino)-3-hydroxypiperidin-1-yl]-4,4,4-trifluorobutan-1-one] as the compound, how does the pKi (CDK6/Cyclin D3) read?
Answer: The pKi was 7.64.

Question: And the pKi (CDK4/Cyclin D1)?
Answer: The pKi was 8.62.

Question: `CC(=O)c1nc2c(F)cc(-c3nc(N[C@@H]4CCN(S(C)(=O)=O)C[C@H]4O)ncc3Cl)cc2n1C(C)C` [Example G01, 1-[6-(5-chloro-2-{[(3R,4R)-3-hydroxy-1-(methanesulfonyl)piperidin-4-yl]amino}pyrimidin-4-yl)-4-fluoro-1-(propan-2-yl)-1H-benzimidazol-2-yl]ethan-1-one] was tested. Which pKi (CDK6/Cyclin D3) did it give?
Answer: The pKi was 8.23.

Question: What about the pKi (CDK4/Cyclin D1) of the same compound?
Answer: Its pKi is 9.40.
